Values quoted from earlier work, collected in patent EP0435915B1, “COMPOSITIONS FOR THE TREATMENT OF LEISHMANIASIS” (priority 1988, dated 1990).

System: leishmaniasis lesions
Conditions: reported by GB-A-2117237; result in words

SMILES: NC[C@@H]1O[C@H](O[C@H]2[C@@H](O)[C@H](O[C@@H]3[C@@H](O)[C@H](N)C[C@H](N)[C@H]3O[C@H]3O[C@H](CO)[C@@H](O)[C@H](O)[C@H]3N)O[C@@H]2CO)[C@H](N)[C@@H](O)[C@@H]1O [paromomycin, 0-2,6-diamino-2,6-dideoxy-β-L-idopyranosyl-(1→3)-0-β-D-ribofuranosyl-(1→5)-0-[2-amino-2-deoxy-α-D-glucopyranosyl-(1→4)]-2-deoxystreptamine]
- effect when applied topically to leishmaniasis lesions: ineffective
